Publication PMC4980083 (JCI insight, 2016)

Legend:
LNCaP95 cells [1] = assay: Cell cycle analysis of LNCaP95 cells; type: cell-based, human; settings: I-EPI-002 5 μM, EPI-002 25 μM, 48 hours
ERα = ERα (Homo sapiens, UniProt P03372); assay: ER transcriptional activity, ERE luciferase reporter; type: cell-based; settings: estradiol induced
[2] = molecular target: T1, endogenous full-length AR (Homo sapiens, UniProt P10275, T878A); assay: Probasin luciferase activity in LNCaP cells, endogenous full-length AR; settings: I-EPI-002 2 μM, enzalutamide 5 μM; R1881 1 nM 24 hours
T1 sequence (P10275 1-920 T878A): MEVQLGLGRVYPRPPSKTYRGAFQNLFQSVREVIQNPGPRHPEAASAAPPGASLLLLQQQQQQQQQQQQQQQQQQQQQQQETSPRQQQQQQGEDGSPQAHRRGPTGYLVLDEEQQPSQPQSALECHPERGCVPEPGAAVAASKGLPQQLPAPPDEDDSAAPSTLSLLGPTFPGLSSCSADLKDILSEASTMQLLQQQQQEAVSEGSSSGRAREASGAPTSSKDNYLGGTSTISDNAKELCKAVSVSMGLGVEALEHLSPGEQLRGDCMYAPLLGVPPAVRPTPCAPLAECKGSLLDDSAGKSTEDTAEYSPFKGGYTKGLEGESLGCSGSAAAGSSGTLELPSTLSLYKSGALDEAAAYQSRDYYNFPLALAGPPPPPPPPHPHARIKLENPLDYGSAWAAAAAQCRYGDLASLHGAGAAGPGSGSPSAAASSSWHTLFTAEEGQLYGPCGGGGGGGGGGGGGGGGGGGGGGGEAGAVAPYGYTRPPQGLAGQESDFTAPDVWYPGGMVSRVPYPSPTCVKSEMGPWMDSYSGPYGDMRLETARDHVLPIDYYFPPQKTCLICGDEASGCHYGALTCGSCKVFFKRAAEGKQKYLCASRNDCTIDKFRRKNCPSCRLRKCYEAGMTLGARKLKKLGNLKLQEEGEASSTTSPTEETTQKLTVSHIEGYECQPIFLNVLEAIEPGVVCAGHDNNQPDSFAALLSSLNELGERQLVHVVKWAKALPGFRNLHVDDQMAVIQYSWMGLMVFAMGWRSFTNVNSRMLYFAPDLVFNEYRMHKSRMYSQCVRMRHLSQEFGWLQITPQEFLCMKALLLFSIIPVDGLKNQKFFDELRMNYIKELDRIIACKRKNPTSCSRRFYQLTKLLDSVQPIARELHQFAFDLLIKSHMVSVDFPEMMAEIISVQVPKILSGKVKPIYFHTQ

GR LBD = molecular target: T2, GR LBD (Homo sapiens, UniProt P04150); assay: Fluorescence polarization competition binding, GR LBD
T2 sequence (P04150 524-758 limits assumed): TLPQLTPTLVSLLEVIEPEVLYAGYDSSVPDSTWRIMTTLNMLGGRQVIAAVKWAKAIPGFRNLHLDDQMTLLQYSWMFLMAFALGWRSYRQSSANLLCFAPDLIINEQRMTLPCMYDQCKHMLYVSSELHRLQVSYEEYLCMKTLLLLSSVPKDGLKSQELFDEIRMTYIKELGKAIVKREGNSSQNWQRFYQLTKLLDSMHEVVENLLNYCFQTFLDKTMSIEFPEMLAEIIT

recombinant AR LBD = molecular target: T3, recombinant AR LBD (Homo sapiens, UniProt P10275); assay: Fluorescence polarization competition binding, AR LBD; settings: 1 nM fluorescently labeled ligand, AR LBD 25 nM
T3 sequence (P10275 669-900 limits assumed): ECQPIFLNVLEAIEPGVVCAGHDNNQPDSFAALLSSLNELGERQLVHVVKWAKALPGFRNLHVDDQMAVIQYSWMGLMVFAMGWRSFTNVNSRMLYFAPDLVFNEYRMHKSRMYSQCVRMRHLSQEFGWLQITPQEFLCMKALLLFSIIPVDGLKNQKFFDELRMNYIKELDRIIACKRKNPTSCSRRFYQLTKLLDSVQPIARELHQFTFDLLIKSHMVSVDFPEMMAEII

DU145 cells = assay: DU145 proliferation/viability; type: cell-based, human; settings: up to 10 times the IC50 required to reduce AR-dependent proliferation; 3 days
[3] = molecular target: T1, endogenous full-length AR; assay: AR transcriptional activity, PSA
LNCaP95 cells [4] = assay: LNCaP95 proliferation, BrdU incorporation; type: cell-based, human; settings: I-EPI-002 2 μM, EPI-002 25 μM, enzalutamide 5 μM; 2 days
GR = molecular target: T4, GR (Homo sapiens, UniProt P04150); assay: GR transcriptional activity, GRE luciferase reporter; type: cell-based; settings: dexamethasone induced
T4 sequence (P04150 1-777): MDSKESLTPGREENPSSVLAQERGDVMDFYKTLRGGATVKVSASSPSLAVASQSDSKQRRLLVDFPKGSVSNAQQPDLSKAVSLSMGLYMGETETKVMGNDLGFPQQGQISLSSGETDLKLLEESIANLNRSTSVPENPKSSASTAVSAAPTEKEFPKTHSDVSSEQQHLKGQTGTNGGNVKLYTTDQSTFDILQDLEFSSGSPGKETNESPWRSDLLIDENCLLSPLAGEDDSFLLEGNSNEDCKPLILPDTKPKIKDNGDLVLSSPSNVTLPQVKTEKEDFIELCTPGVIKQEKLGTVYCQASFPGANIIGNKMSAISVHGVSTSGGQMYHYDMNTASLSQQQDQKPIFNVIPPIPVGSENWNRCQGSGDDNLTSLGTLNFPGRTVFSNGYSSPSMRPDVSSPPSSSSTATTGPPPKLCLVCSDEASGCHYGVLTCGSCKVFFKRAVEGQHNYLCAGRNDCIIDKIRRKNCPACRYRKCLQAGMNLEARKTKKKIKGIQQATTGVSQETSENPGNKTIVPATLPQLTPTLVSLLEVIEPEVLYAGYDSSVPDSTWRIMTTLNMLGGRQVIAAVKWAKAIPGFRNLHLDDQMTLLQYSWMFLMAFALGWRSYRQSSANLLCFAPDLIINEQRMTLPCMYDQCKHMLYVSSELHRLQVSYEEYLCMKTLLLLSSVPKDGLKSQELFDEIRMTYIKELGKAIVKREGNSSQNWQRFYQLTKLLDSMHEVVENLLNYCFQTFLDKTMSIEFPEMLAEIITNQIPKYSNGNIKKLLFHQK

full-length AR and V7 = assay: Probasin luciferase activity in LNCaP cells, full-length AR and V7; settings: I-EPI-002 2 μM, enzalutamide 5 μM; presence or absence of androgen

Sequence of ERα (P03372 whole entry): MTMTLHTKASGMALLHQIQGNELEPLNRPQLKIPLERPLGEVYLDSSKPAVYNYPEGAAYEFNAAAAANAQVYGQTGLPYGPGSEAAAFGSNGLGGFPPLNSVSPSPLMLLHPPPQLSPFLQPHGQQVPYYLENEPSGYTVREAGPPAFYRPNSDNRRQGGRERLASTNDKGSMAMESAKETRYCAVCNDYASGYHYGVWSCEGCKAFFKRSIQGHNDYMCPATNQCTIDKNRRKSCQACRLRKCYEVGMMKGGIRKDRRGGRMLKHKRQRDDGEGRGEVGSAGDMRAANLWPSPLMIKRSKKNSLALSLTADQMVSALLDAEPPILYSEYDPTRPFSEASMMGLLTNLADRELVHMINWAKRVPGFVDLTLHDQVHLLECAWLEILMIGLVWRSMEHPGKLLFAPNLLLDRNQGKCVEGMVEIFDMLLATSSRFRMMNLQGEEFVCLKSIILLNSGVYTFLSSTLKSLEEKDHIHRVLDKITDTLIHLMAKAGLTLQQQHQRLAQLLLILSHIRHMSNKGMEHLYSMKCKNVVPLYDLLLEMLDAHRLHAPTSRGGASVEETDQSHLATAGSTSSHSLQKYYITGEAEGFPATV

Substance: 15-IodoEPI002 [I-EPI-002]
- decrease of S phase cells (LNCaP95 cells [1]): ≥ 2 fold
- inhibition of ER transcriptional activity (ERα): did not inhibit
- inhibition of probasin luciferase activity, full-length AR [2]: showed good inhibition
- competition for ligand binding to GR LBD (GR LBD): did not prevent ligand-binding
- competition with fluoromone for binding to AR LBD (recombinant AR LBD): did not prevent ligand-binding
- effect on proliferation or viability of DU145 cells (DU145 cells): no effect
- potency relative to EPI-002 ([3]; cell-based functional assays): 10 times
- inhibition of AR transcriptional activity with increasing concentrations of androgen ([3]; increasing R1881, enzalutamide 5 μM, I-EPI-002 5 μM, EPI-002 25 μM): maintained effective inhibition
- inhibition of AR transcriptional activity ([3]; ~2 μM, R1881 1 nM): 75%
- effect on proliferation of LNCaP95 cells (LNCaP95 cells [4]): decreased proliferation
- inhibition of GR transcriptional activity (GR): did not inhibit
- inhibition of probasin luciferase activity, full-length AR with V7 (full-length AR and V7): showed good inhibition
